Assay results from patent US9980965B2, “Treatment of autoimmune disease” (MingSight Pharmaceuticals, Inc., priority 2014, dated 2018).
Where two headings read alike, the source gives them in different places. Marks after values point to notes of the source that are not given here.

Experiments:
pSHP2 (PKCβ cell assay) = test: pSHP2 (PKCβ cell assay); assay type: cell-based
Source text: (§1) The methods for these determinations have been described (Grant, et al. 2010, Eur J Pharmacol. 627:16-25).

Human PKC iota = target: T1, Human PKC iota (Homo sapiens, UniProt P41743); test: In vitro PKC inhibition, PKC iota; assay type: biochemical
T1 sequence (P41743 1-596): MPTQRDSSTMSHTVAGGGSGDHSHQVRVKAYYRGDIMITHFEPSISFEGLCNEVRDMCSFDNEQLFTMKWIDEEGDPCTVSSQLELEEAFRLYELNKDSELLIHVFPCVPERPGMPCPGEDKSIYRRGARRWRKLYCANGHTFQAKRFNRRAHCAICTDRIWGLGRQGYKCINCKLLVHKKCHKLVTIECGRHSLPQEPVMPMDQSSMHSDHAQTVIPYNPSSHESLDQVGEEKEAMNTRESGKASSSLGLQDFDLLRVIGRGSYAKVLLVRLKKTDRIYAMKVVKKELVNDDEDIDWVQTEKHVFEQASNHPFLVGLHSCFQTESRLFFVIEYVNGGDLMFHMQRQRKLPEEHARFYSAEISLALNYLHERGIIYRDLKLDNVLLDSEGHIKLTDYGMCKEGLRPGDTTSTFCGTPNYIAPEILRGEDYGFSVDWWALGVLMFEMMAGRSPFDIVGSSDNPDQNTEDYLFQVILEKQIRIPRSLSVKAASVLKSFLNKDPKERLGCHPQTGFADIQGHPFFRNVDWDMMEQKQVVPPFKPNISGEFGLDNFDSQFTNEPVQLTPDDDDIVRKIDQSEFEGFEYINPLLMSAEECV
Source text: as §1

[1] = Separate pharmacokinetics experiments in mice; assay type: in vivo; conditions: 60 mg/kg dose, oral
Human PKC betaI = Human PKC betaI (Homo sapiens, UniProt P05771); test: In vitro PKC inhibition, PKC betaI; assay type: biochemical
Sequence of Human PKC betaI (P05771 whole entry): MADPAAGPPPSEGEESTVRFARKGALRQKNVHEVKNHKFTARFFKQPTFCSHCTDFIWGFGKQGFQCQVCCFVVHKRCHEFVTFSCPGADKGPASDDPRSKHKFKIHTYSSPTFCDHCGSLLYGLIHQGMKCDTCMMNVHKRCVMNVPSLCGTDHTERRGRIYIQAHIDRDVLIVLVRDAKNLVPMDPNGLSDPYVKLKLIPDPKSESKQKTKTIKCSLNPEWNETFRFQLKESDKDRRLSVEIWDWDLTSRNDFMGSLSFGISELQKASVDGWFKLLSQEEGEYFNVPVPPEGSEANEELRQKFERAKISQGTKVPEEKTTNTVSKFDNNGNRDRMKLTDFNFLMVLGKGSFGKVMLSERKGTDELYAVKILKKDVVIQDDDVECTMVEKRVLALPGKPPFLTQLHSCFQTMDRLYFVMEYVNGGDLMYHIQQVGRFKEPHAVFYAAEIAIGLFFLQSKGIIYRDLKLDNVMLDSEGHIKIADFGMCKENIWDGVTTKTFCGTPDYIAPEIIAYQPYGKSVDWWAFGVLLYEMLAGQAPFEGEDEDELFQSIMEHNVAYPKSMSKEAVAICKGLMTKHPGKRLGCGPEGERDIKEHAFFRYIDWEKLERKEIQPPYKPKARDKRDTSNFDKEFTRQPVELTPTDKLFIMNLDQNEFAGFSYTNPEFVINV

Human PKC mu = target: T2, Human PKC mu (Homo sapiens, UniProt Q15139); test: In vitro PKC inhibition, PKC mu; assay type: biochemical
T2 sequence (Q15139 1-912): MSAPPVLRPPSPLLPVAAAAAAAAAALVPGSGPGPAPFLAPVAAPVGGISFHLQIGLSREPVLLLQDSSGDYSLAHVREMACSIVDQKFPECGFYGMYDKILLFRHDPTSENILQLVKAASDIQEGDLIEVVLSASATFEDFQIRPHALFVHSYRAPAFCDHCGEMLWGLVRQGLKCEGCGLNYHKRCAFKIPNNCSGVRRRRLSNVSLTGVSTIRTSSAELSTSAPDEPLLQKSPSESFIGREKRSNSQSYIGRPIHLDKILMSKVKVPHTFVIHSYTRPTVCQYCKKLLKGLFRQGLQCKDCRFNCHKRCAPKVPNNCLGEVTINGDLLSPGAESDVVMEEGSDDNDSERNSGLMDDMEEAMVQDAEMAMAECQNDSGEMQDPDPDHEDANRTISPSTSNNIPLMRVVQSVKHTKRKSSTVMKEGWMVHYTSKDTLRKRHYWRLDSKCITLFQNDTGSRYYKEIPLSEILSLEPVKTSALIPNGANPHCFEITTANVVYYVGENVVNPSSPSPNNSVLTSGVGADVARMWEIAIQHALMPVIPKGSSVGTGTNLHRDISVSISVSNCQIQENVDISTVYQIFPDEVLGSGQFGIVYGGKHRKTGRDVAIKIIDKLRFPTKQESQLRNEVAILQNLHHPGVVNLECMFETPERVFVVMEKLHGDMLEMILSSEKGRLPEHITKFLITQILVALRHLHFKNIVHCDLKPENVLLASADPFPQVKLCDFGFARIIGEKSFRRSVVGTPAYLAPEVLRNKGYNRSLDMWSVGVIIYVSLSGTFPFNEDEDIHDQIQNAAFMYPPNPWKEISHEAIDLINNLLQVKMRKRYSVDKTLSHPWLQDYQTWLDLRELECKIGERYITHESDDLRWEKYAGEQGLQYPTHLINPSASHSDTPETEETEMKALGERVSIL
Source text: as §1

[2] = system: EAE induced by MBP69-88/CFA immunization and pertussis toxin injection; assay type: in vivo, Lewis rats; conditions: for Median day of onset (all rats) / Mean day of onset +/− SEM (sick rats) / EAE incidence (%): p.o.; for Median day of onset (all rats): vehicle 9.0; for Mean day of onset +/− SEM (sick rats): vehicle 9.3 +/− 0.6; for EAE incidence (%): vehicle 100.0%
Human PKC delta = Human PKC delta (Homo sapiens, UniProt Q05655); test: In vitro PKC inhibition, PKC delta; assay type: biochemical
Sequence of Human PKC delta (Q05655 whole entry): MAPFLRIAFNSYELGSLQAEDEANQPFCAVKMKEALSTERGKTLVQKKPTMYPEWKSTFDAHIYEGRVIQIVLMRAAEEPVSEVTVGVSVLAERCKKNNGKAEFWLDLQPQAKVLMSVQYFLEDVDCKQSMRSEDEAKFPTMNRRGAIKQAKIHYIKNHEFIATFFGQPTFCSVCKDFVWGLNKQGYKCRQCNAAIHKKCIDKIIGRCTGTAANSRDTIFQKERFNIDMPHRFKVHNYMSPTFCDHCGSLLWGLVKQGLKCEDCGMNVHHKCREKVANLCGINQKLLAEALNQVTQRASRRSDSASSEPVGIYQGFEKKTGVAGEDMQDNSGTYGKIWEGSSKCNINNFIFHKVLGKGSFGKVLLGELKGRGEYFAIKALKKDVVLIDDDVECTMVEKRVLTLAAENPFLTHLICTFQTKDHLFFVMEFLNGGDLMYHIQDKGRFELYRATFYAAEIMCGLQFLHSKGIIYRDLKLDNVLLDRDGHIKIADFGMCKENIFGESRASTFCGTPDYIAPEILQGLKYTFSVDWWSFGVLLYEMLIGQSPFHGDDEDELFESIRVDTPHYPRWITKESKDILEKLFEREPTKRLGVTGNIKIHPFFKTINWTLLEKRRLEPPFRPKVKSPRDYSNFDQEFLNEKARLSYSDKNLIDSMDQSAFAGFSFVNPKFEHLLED
Source text: as §1

Human PKC gamma = Human PKC gamma (Homo sapiens, UniProt P05129); test: In vitro PKC inhibition, PKC gamma; assay type: biochemical
Source text: as §1

Human PKC betaII = Human PKC betaII (Homo sapiens, UniProt P05771); test: In vitro PKC inhibition, PKC betaII; assay type: biochemical
Sequence of Human PKC betaII (P05771 1-673 isoform P05771-2): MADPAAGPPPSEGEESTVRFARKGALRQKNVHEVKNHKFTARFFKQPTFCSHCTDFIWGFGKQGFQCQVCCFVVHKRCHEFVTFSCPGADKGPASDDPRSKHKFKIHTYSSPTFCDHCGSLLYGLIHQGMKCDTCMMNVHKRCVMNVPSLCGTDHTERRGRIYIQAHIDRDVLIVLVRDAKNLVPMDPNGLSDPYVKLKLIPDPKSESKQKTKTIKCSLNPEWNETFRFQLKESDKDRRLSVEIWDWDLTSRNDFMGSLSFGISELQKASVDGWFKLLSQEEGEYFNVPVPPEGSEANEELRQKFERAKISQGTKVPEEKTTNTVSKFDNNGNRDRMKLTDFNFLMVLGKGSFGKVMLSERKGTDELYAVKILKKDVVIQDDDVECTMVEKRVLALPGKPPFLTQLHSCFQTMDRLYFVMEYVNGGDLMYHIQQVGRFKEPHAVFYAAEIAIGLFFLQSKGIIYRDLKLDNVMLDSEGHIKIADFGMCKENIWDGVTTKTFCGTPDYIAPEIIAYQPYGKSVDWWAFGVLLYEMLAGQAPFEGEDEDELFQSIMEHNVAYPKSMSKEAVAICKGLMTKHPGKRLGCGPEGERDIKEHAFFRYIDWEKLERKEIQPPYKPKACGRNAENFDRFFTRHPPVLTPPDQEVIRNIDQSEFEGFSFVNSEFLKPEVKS

[3] = 15 and 30 mg/kg BID, compared to the vehicle control group

## Cc1ncc(F)c(Nc2n[nH]c3c2CN(C(=O)N2C[C@@H](C)N(CC4CCOCC4)C[C@@H]2C)C3(C)C)n1 [Compound A, 5-{[(2S,5R)-2,5-Dimethyl-4-(tetrahydro-2H-pyran-4-ylmethyl)piperazin-1-yl]carbonyl}-N-(5-fluoro-2-methylpyrimidin-4-yl)-6,6-dimethyl-1,4,5,6-tetrahydropyrrolo[3,4-c]pyrazol-3-amine]
pSHP2 (PKCβ cell assay)
  IC50: 9.8 nM
Human PKC iota
  IC50: > 1000 nM
[1]
  exposure in mice: unexpectedly low and insufficient exposure
Human PKC betaI
  IC50: 8.1 nM
Human PKC mu
  IC50: 314 nM
[2]; 7.5 mg/kg, BID
  Median day of onset (all rats): 9.0 days
  Mean day of onset +/− SEM (sick rats): 9.0 ± 0.5 days
  EAE incidence (%): 100.0%
[2]; 15 mg/kg, BID
  Median day of onset (all rats): 8.0 days
  Mean day of onset +/− SEM (sick rats): 8.5 ± 0.4 days
  EAE incidence (%): 100.0%
[2]; 30 mg/kg, BID
  Mean day of onset +/− SEM (sick rats): 9.0 ± 0.9 days
[2]; 30 mg/kg, BID, p < 0.05 vs. vehicle
  EAE incidence (%): 50.0%*
[2]; 7.5, 15 and 30 mg/kg BID
  clinical score (EAE): dose-dependent decrease
[2]; [3]
  end severity (FIG. 5): significantly reduced
  maximum EAE severity (FIG. 5): significantly reduced
[2]; highest dose (30 mg/kg BID)
  EAE incidence (in words): significantly reduced
[2]; highest dose employed (30 mg/kg BID) vs. FTY720 0.5 mg/kg QD
  efficacy compared with fingolimod: appeared superior to fingolimod
Human PKC delta
  IC50: > 1000 nM
  inhibition of PKC delta (in words): does not significantly inhibit
Human PKC gamma
  IC50: 57.5 nM
Human PKC betaII
  IC50: 7.6 nM
Human PKC betaII; recombinant PKC beta (betaII in Table 1)
  Ki: 5.3 nM

## CCCCCCCCc1ccc(CCC(N)(CO)CO)cc1 [FTY720, fingolimod, reference compound]
[2]; 0.5 mg/kg, QD
  Median day of onset (all rats): 8.0 days
  Mean day of onset +/− SEM (sick rats): 8.0 ± 0.3 days
